The values below come from patent US9745267B2, “Compounds as modulators of RORC” (Boehringer Ingelheim International GmbH, priority 2013, dated 2017).

For the test, the target named is T1, RORγt (hRORC LBD) (Homo sapiens, UniProt P51449).
T1 construct: expressed in transfected cells; host or cells: HEK 293 (transient cotransfection with pGL4.3 luc2P/GAL4UAS/Hygro reporter)
T1 sequence (P51449 269-508 limits assumed): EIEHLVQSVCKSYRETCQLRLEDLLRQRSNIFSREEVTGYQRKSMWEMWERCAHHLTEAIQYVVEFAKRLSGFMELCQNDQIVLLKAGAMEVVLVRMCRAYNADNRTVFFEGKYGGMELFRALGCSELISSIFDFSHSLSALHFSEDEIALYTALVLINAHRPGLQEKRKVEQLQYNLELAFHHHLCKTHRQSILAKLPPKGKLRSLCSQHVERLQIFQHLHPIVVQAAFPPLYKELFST
The test can be described thus: RGA Assay: nuclear receptor transactivation assay, RORγt transactivation of a luciferase reporter. Type of test: cell-based. Particulars: transiently transfected HEK 293 cells, Gal4DBD hRORC LBD, 20-24 hours incubation. The method, then:
A nuclear receptor transactivation assay was performed to quantitate the ability of test compounds to inhibit RORγt transactivation of a luciferase reporter. A similar assay is described in: Khan et al., Bioorganic & Medicinal Chemistry Letters 23 (2013), 532-536. The system uses transiently transfected HEK 293 cells cotransfected with two plasmids (pGL4.3, luc2P/GAL4UAS/Hygro, and pBIND, Gal4DBD hRORC LBD1-3). The positive control is co-transiently transfected with both plasmids, and the negative control contains the pGL4.3 promoter sequence. Assays were assembled in 384 well plates where transiently transfected cells and test compound at varying concentrations were incubated for 20-24 hours. The next day, assays plates are taken out and equilibrated at RT for 20-30 minutes. Bright-Glo™ Luciferase Assay System is used to detect Luciferase production. After addition of Bright GLO detection reagent, the plates were incubated at RT for 20 minutes. The plates were read on an Envision plate reader to measure luminescence signal. The RLU signal is converted to POC relative to control and blank wells.
Compound Dilution Buffer:
Bright Glo Luciferase Assay System: Promega #E2620
Thaw lysis buffer provided in kit, add 100 mL lysis buffer to substrate powder.
As for `CNS(=O)(=O)c1ccc(CNC(=O)N2CC3(CCCC3)c3cc(-c4ccc(F)cc4C)ccc32)cc1` [Example 1], the IC50 was 840 nM. `CNS(=O)(=O)c1ccc(CNC(=O)N2CC3(CCCC3)c3cc(-c4ccccc4C)ccc32)cc1` [Example 2]: the IC50 turned out to be 920 nM. `CNS(=O)(=O)c1ccc(CNC(=O)N2CC3(CCCC3)c3cc(-c4cc(C)ccc4C)ccc32)cc1` [Example 3]: the 50% inhibitory concentration (IC50) was 1000 nM. Compound `CNS(=O)(=O)c1ccc(CNC(=O)N2CC3(CCCC3)c3cc(-c4cccc5cccnc45)ccc32)cc1` [Example 4] had an IC50 of 1500 nM.

As to `CNS(=O)(=O)c1ccc(CNC(=O)N2CC3(CCCC3)c3cc(-c4cccc(N5CCCC5)c4)ccc32)cc1` [Example 5], the IC50 came to 1600 nM.

For the compound `CNS(=O)(=O)c1ccc(CNC(=O)N2CC3(CCCC3)c3cc(-c4ccc(OC)cc4C(F)(F)F)ccc32)cc1` [Example 6], the IC50 is 310 nM. Then `CNS(=O)(=O)c1ccc(CNC(=O)N2CC3(CCCC3)c3cc(-c4cc(F)ccc4C(F)(F)F)ccc32)cc1` [Example 7], with 340 nM; and `CNS(=O)(=O)c1ccc(CNC(=O)N2CC3(CCCC3)c3cc(-c4ccc(F)cc4C(F)(F)F)ccc32)cc1` [Example 8], with 420 nM.

Turning to `CCc1ccccc1-c1ccc2c(c1)C1(CCCC1)CN2C(=O)NCc1ccc(S(=O)(=O)NC)cc1` [Example 9], the IC50 is 610 nM.

`CNS(=O)(=O)c1ccc(CNC(=O)N2CC3(CCCC3)c3cc(-c4ccccc4C(F)(F)F)ccc32)cc1` [Example 10] displayed a half-inhibitory concentration (IC50) of 640 nM. Regarding `CNS(=O)(=O)c1ccc(CNC(=O)N2CC3(CCCC3)c3cc(-c4ccc(O)cc4C)ccc32)cc1` [Example 11], half-maximal inhibition (IC50) was put at 690 nM.

For the compound `CCOc1ccc(-c2ccc3c(c2)C2(CCCC2)CN3C(=O)NCc2ccc(S(=O)(=O)NC)cc2)c(C)c1` [Example 12], the midpoint of inhibition, the IC50, lay at 780 nM. `CNS(=O)(=O)c1ccc(CNC(=O)N2CC3(CCCC3)c3cc(-c4cc(S(=O)(=O)N(C)C)ccc4C)ccc32)cc1` [Example 13]: the IC50 came to 840 nM. Turning to `CNS(=O)(=O)c1ccc(CNC(=O)N2CC3(CCCC3)c3cc(-c4ccc(C)cc4C)ccc32)cc1` [Example 14], 870 nM corresponded to half-maximal inhibition (IC50).

Compound `CNS(=O)(=O)c1ccc(CNC(=O)N2CC3(CCCC3)c3cc(-c4ccc(C#N)cc4C)ccc32)cc1` [Example 15] displayed an IC50 of 940 nM. With `CNS(=O)(=O)c1ccc(CNC(=O)N2CC3(CCCC3)c3cc(-c4cc(F)ccc4C)ccc32)cc1` [Example 16], the IC50 came to 960 nM. On to `CNS(=O)(=O)c1ccc(CNC(=O)N2CC3(CCCC3)c3cc(-c4c(C)cccc4C)ccc32)cc1` [Example 17], for which the IC50 is 1000 nM. Consider `CNS(=O)(=O)c1ccc(CNC(=O)N2CC3(CCCC3)c3cc(-c4cncnc4C(C)C)ccc32)cc1` [Example 18], for which the concentration for half-maximal inhibition (IC50) is 1000 nM. `CNS(=O)(=O)c1ccc(CNC(=O)N2CC3(CCCC3)c3cc(-c4ccccc4C(=O)OC)ccc32)cc1` [Example 19] gave an IC50 of 1100 nM. Compound `CNS(=O)(=O)c1ccc(CNC(=O)N2CC3(CCCC3)c3cc(-c4ccccc4COC)ccc32)cc1` [Example 20] came in with an IC50 of 1100 nM.

In turn, `CCOCc1ccccc1-c1ccc2c(c1)C1(CCCC1)CN2C(=O)NCc1ccc(S(=O)(=O)NC)cc1` [Example 21] had an IC50 of 1100 nM. `CNS(=O)(=O)c1ccc(CNC(=O)N2CC3(CCCC3)c3cc(-c4cccc(C)c4C)ccc32)cc1` [Example 22]: half-maximal inhibition (IC50) was put at 1200 nM.

In the case of `CNS(=O)(=O)c1ccc(CNC(=O)N2CC3(CCCC3)c3cc(-c4ccc(OC)cc4C)ccc32)cc1` [Example 23], 1200 nM corresponded to half-maximal inhibition (IC50). On to `CCOC(=O)c1ccccc1-c1ccc2c(c1)C1(CCCC1)CN2C(=O)NCc1ccc(S(=O)(=O)NC)cc1` [Example 24], for which the IC50 was found to be 1300 nM. In turn, `CNS(=O)(=O)c1ccc(CNC(=O)N2CC3(CCCC3)c3cc(-c4cnccc4C(F)(F)F)ccc32)cc1` [Example 25] returned an IC50 of 1300 nM. With `CNS(=O)(=O)c1ccc(CNC(=O)N2CC3(CCCC3)c3cc(-c4cc(OC)c(OC)cc4C(=O)OC)ccc32)cc1` [Example 26], the half-maximal inhibitory concentration (IC50) was 1400 nM.

For the compound `CNS(=O)(=O)c1ccc(CNC(=O)N2CC3(CCCC3)c3cc(-c4ccccc4C(C)=O)ccc32)cc1` [Example 27], it took 1700 nM to reach half-maximal inhibition (IC50). For `CCS(=O)(=O)c1ccc(CNC(=O)N2CC3(CCCC3)c3cc(-c4ccc(F)cc4C)ccc32)cc1` [Example 28], the IC50 worked out at 1200 nM. Compound `CNS(=O)(=O)c1ccc(CNC(=O)N2CC3(CCCC3)c3cc(-c4cc5cnn(C)c5cc4C)ccc32)cc1` [Example 29] returned an IC50 of 720 nM. With `CNS(=O)(=O)c1ccc(CNC(=O)N2CC3(CCCC3)c3cc(-c4cc5c(cnn5C)cc4C)ccc32)cc1` [Example 30], the IC50 was 740 nM. The compound `CNS(=O)(=O)c1ccc(CNC(=O)N2CC3(CCCC3)c3cc(-c4ccccc4C(F)F)ccc32)cc1` [Example 31] returned an IC50 of 740 nM. `CNS(=O)(=O)c1ccc(CNC(=O)N2CC3(CCCC3)c3cc(-c4c(C)ccc5c4cnn5C)ccc32)cc1` [Example 32] showed an IC50 of 750 nM. Then `CNS(=O)(=O)c1ccc(CNC(=O)N2CC3(CCCC3)c3cc(-c4ccccc4-c4cnco4)ccc32)cc1` [Example 33], with 750 nM; and `CNS(=O)(=O)c1ccc(CNC(=O)N2CC3(CCCC3)c3cc(-c4c(F)cccc4C#N)ccc32)cc1` [Example 34], with 790 nM; and `CNS(=O)(=O)c1ccc(CNC(=O)N2CC3(CCCC3)c3cc(-c4cc(C(C)=O)ccc4C)ccc32)cc1` [Example 35], with 890 nM. In turn, `CNS(=O)(=O)c1ccc(CNC(=O)N2CC3(CCCC3)c3cc(-c4ccncc4C(F)(F)F)ccc32)cc1` [Example 36] had an IC50 of 890 nM. The compound `CNS(=O)(=O)c1ccc(CNC(=O)N2CC3(CCCC3)c3cc(-c4ccc(N)cc4C(=O)OC)ccc32)cc1` [Example 37] showed an IC50 of 920 nM.

With `CNS(=O)(=O)c1ccc(CNC(=O)N2CC3(CCCC3)c3cc(-c4cccc(C#N)c4C)ccc32)cc1` [Example 38], the midpoint of inhibition, the IC50, lay at 970 nM. With `CNS(=O)(=O)c1ccc(CNC(=O)N2CC3(CCCC3)c3cc(-c4ccc(C)cc4C#N)ccc32)cc1` [Example 39], the IC50 came to 1000 nM.

`CNS(=O)(=O)c1ccc(CNC(=O)N2CC3(CCCC3)c3cc(-c4ccc5c(cnn5C)c4C)ccc32)cc1` [Example 40] returned an IC50 of 1100 nM. Turning to `CNS(=O)(=O)c1ccc(CNC(=O)N2CC3(CCCC3)c3cc(-c4cc(C#N)ccc4C)ccc32)cc1` [Example 41], half-maximal inhibition (IC50) was put at 1100 nM. In turn, `CNS(=O)(=O)c1ccc(CNC(=O)N2CC3(CCCC3)c3cc(-c4ccc(CO)cc4C)ccc32)cc1` [Example 42] had an IC50 of 1100 nM. In the case of `CNS(=O)(=O)c1ccc(CNC(=O)N2CC3(CCCC3)c3cc(-c4cccc(F)c4CC#N)ccc32)cc1` [Example 43], the 50% inhibitory concentration (IC50) is 1100 nM. The compound `CNc1ccc(-c2ccc3c(c2)C2(CCCC2)CN3C(=O)NCc2ccc(S(=O)(=O)NC)cc2)c(C)c1` [Example 44] gave an IC50 of 1100 nM. The compound `CNS(=O)(=O)c1ccc(CNC(=O)N2CC3(CCCC3)c3cc(-c4ccccc4CC#N)ccc32)cc1` [Example 45] had an IC50 of 1200 nM.

The compound `CNS(=O)(=O)c1ccc(CNC(=O)N2CC3(CCCC3)c3cc(-c4cc(F)ccc4CC#N)ccc32)cc1` [Example 46] registered an IC50 of 1300 nM. The result for `CNS(=O)(=O)c1ccc(CNC(=O)N2CC3(CCCC3)c3cc(-c4cccc5[nH]nc(C)c45)ccc32)cc1` [Example 47] reads 1500 nM; that for `CNS(=O)(=O)c1ccc(CNC(=O)N2CC3(CCCC3)c3cc(-c4ccc5[nH]ncc5c4C)ccc32)cc1` [Example 48], 1600 nM; that for `CNS(=O)(=O)c1ccc(CNC(=O)N2CC3(CCCC3)c3cc(-c4cnc(OC)cc4C)ccc32)cc1` [Example 49], 1900 nM. Regarding `CNS(=O)(=O)c1ccc(CNC(=O)N2CC3(CCCC3)c3cc(-c4ccc(NC(C)=O)cc4C)ccc32)cc1` [Example 50], half-maximal inhibition (IC50) required 1900 nM. Then `CCC1(CC)CN(C(=O)NCc2ccc(S(=O)(=O)NC)cc2)c2ccc(-c3ccc(F)cc3C)cc21` [Example 52], with 1100 nM; and `CCC1(C)CN(C(=O)NCc2ccc(S(=O)(=O)NC)cc2)c2ccc(-c3ccc(F)cc3C)cc21` (centres unmarked) [Example 53], with 1200 nM; and `Cc1cc(F)ccc1-c1ccc2c(c1)C1(CCCC1)CN2C(=O)NCc1ccc(S(C)(=O)=O)cc1` [Example 54], with 1300 nM. Take `CNS(=O)(=O)c1ccc(CNC(=O)N2CC3(CCCCC3)c3cc(-c4ccc(F)cc4C)ccc32)cc1` [Example 55]: the IC50 came out at 1500 nM. In turn, `CNS(=O)(=O)c1ccc(CNC(=O)N2CC3(CCCC3)c3cc(-c4ccc(O)cc4C(F)(F)F)ccc32)cc1` [Example 56] showed an IC50 of 400 nM.

Compound `CCC1(C)CN(C(=O)NCc2ccc(S(=O)(=O)NC)cc2)c2ccc(-c3ccc(OC)cc3C(F)(F)F)cc21` (centres unmarked) [Example 57] returned an IC50 of 780 nM.

The term IC50 denotes the midpoint of a concentration-inhibition curve. A higher IC50 goes with lower potency.
